Source: patent publication US12644133B2, “Methods and compositions to increase somatic cell nuclear transfer (SCNT) efficiency by removing histone H3-lysine trimethylation” (The Children's Medical Center Corporation, priority 2014, dated 2026)

Tests used:
[1] = tested on: SCNT embryos; assay: Preimplantation development of SCNT embryos cultured in vitro; type: cell-based, mouse; settings: for No. of blastocyst / blastocyst (% per 1-cell): ntESC derivation experiment
Description: C57BL/6J female mice were mated with DBA/2J males to produce B6D2F1/J (BDF1) mice. BDF1 and CD-1 (ICR) adult females were used for the collection of recipient oocytes and embryo transfer recipients, respectively. BDF1 mice were used for the collection of donor somatic cells for the analyses of development. (C57BL/6×CAST/EiJ) F1 mice were used for the collection of donor cells for RNA-seq. E13.5 embryos harboring GOF18 delta-PE (Jackson Laboratory, 004654: Tg(Pou5f1-EGFP)2Mnn, C57BL/6J background) were used for the isolation of mouse embryonic fibroblasts (MEF). All animal experiments were approved by the Institutional Animal Care and Use Committee of Harvard Medical School.
Cumulus cells were collected from adult BDF1 females through superovulation by injecting 7.5 IU of pregnant mare serum gonadotropin (PMSG; Harbor) and 7.5 IU of human chorionic gonadotropin (hCG; Millipore). Fifteen hours after the hCG injection, cumulus-oocyte complexes (COCs) were collected from the oviducts and briefly treated with Hepes-buffered potassium simplex-optimized medium (KSOM) containing 300 U/ml bovine testicular hyaluronidase (Calbiochem #385931) to obtain dissociated cumulus cells. Sertoli cells were collected from testes of 3- to 5-day-old BDF1 male mice as described (Matoba et al., 2011). Testicular masses were incubated in PBS containing 0.1 mg/ml collagenase (Life Technologies #17104-019) for 30 min at 37° C. followed by 5 min treatment with 0.25% Trypsine with 1 mM EDTA (Life Technologies #25200-056) at room temperature. After washing for four times with PBS containing 3 mg/ml bovine serum albumin, the dissociated cells were suspended in Hepes-KSOM medium.
Primary mouse embryonic fibroblast (MEF) cells were established from GOF18 delta-PE mouse embryos at 13.5 dpc. After removal of head and all organs, minced tissue from remaining corpus was dissociated in 500 μl of 0.25% Trypsine with 1 mM EDTA for 10 min at 37° C. Cell suspension was diluted with equal amount of DMEM (Life Technologies #11995-073) containing 10% FBS and Penicillin/Streptomycin (Life Technologies #15140-022) and pipetted up and down for 20 times. The cell suspension was diluted with fresh medium and plated onto 100 mm dishes and cultured at 37° C. Two days later, MEF cells were harvested and frozen. Frozen stocks of MEF cells were thawed and used for experiments after one passage.
siRNAs against mouse Suv39h1 (Life Technologies #s74607), Suv39h2 (Life Technologies #s82300) and Setdb1 (Life Technologies #s96549) were diluted in nuclease free water at 50 μM stock solutions. siRNAs were introduced to MEFs with Lipofectamine RNAi Max (Life technologies #35050-061) following manufacturer's protocol. Briefly, 1×10^5 MEF cells were seeded onto 24-well plate (day 0; see FIG. 5A). Twenty-four hours later, […] siRNAs were transfected into MEF cells using Lipofectamine RNAi Max (day 1). Twenty-four hours after the first transfection, the culture media was changed to fresh M293T media [DMEM supplemented with 10% FBS, 0.1 mM non-essential amino acids (Life technologies #11140-050), 2 mM GlutaMAX (Life technologies #35050-079), 50 U/ml penicillin-streptomycin and 0.1 mM 2-mercaptoethanol (Life technologies #21985-023)] (day 2). On day 3, MEF cells were reseeded onto 24-well plates at the density of 1×10^5 cells. Then transfection was repeated once as described above (day 4). Forty-eight hours after the second transfection (day 6), MEF cells were used for immunostaining, RT-qPCR or SCNT.
Somatic cell nuclear transfer was carried out as described previously (Matoba et al., 2011). Briefly, recipient MII oocytes were collected from superovulated adult BDF1 females by brief treatment with 300 U/ml bovine testicular hyaluronidase (Calbiochem). Isolated MII oocytes were enucleated in Hepes-buffered KSOM medium containing 7.5 μg/ml of cytochalasin B (Calbiochem #250233). […]

[2] = tested on: SCNT blastocysts; assay: ntESC derivation from SCNT blastocysts; type: cell-based, mouse; settings: for No. of blastocyst attached to feeder cells / No. of established ntESC lines / blastocyst attached to feeder cells (% per blast) / established ntESC lines (% per MII oocyte) / established ntESC lines (% per blast): cumulus donor cells (BDF1, female)
Method: Blastocysts were denuded by acid tyrode treatment and cultured on mitomycin treated MEF feeder cells and in DMEM supplemented with 5% FBS, 10% KnockOut serum replacement (Life Technologies #10828-028), 0.1 mM non-essential amino acids, 2 mM GlutaMAX, 50 U/ml penicillin-streptomycin, 0.1 mM 2-mercaptoethanol and 2000 U leukemia inhibitory factor (LIF, Millipore #ESG1107) at 37° C. 5% CO2. Four to five days later, outgrowths from attached embryos were dissociated with 0.25% trypsin and passaged all onto new feeder cells. On the following day, the medium was replaced with N2B27-LIF media [DMEM/F12 (Life Technologies #10565-042) supplemented with 0.1 mM non-essential amino acids, 2 mM GlutaMAX, 50 U/ml penicillin-streptomycin, 0.1 mM 2-mercaptoethanol, 0.5×N2 supplement (Life technologies #17502-048), 0.5× B27 supplement (Life technologies #17504-044), […] CHIR99021 (STEMGENT #04-0004), 0.5 μM PD0325901 (STEMGENT #04-0006) and 1000 U LIF]. Five days later, expanded cells were reseeded as established ntESC.

[3] = MEF donor cells (C57BL/6, male) treated with transfection reagent alone, injected mRNA 1800 ng/μl
[4] = Sertoli donor cells (BDF1, male), injected mRNA 1800 ng/μl
[5] = cumulus donor cells (BDF1, female), TSA treatment 15 nM for 8 h, water or mRNA 1800 ng/μl injected
[6] = cumulus donor cells (BDF1, female), no TSA, injected mRNA 1800 ng/μl
[7] = cumulus donor cells (BDF1, female), no TSA, mRNA 1800 ng/μl
[8] = TSA treatment 15 nM for 8 h, water or mRNA 1800 ng/μl injected

Substance: Kdm4d WT mRNA: in vitro transcribed full length mouse Kdm4d mRNA, encoding an H3K9me3-specific histone demethylase
- % 4-cell per 2-cell ± SD [1, 3]: 95.4 ± 5.5 %
- % blast per 2-cell ± SD [1, 3]: 82.0 ± 10.3 %
- % cleaved per 1-cell ± SD [1, 3]: 86.9 ± 8.8%
- % morula per 2-cell ± SD [1, 3]: 89.6 ± 7.9 %
- developmental efficiency of SCNT embryos (in words) ([1]; Sertoli cells or C57BL/6 background MEF cells as donor cells): significantly improved the developmental efficiency
- % 4-cell per 2-cell ± SD [1, 4]: 95.3 ± 3.6 %
- % blast per 2-cell ± SD [1, 4]: 81.2 ± 7.5 %
- % cleaved per 1-cell ± SD [1, 4]: 89.3 ± 8.4%
- % morula per 2-cell ± SD [1, 4]: 91.6 ± 6.4 %
- % 4-cell per 2-cell ± SD [1, 5]: 95.8 ± 0.0 %
- % cleaved per 1-cell ± SD [1, 5]: 94.1 ± 0.0%
- % morula per 2-cell ± SD [1, 5]: 93.8 ± 6.3 %
- % blast per 2-cell ± SD ([1]; cumulus donor cells (BDF1, female), TSA treatment 15 nM for 8 h, water or mRNA 1800 ng/μl injected, listed as Kdm4d WT): 87.5 ± 12.5 %
- % blast per 2-cell ± SD ([1]; cumulus donor cells (BDF1, female), TSA treatment 15 nM for 8 h, water or mRNA 1800 ng/μl injected, listed as Kdm4d mRNA): 87.5%
- % 4-cell per 2-cell ± SD [1, 6]: 98.9 ± 2.3 %
- % cleaved per 1-cell ± SD [1, 6]: 92.7 ± 6.2%
- % morula per 2-cell ± SD [1, 6]: 96.5 ± 4.4 %
- % blast per 2-cell ± SD ([1]; cumulus donor cells (BDF1, female), no TSA, injected mRNA 1800 ng/μl, 96 h culture, listed as Kdm4d): 88.6%
- % blast per 2-cell ± SD ([1]; cumulus donor cells (BDF1, female), no TSA, injected mRNA 1800 ng/μl, 96 h culture, listed as Kdm4d WT): 88.6 ± 3.9 %
- % blast per 2-cell ± SD ([1]; cumulus donor cells (BDF1, female), no TSA, injected mRNA 1800 ng/μl, 96 h culture, listed as wild-type Kdm4d mRNA): 88.6%
- No. of blastocyst [1, 5]: 21
- blastocyst (% per 1-cell) [1, 5]: 95.5%
- No. of blastocyst [1, 7]: 18
- blastocyst (% per 1-cell) [1, 7]: 94.7%
- efficiency of attachment or ntESC derivation per blastocyst, compared to control (in words) ([2]; SCNT blastocysts from cumulus donor cells): did not show any significant difference
- ntESC derivation efficiency based on the total number of MII oocytes used for SCNT (in words) ([2]; cumulus donor cells): greatly improved
- No. of blastocyst attached to feeder cells [2, 8]: 16
- No. of established ntESC lines [2, 8]: 11
- blastocyst attached to feeder cells (% per blast) [2, 8]: 76.2%
- established ntESC lines (% per MII oocyte) [2, 8]: (44.0) %
- established ntESC lines (% per blast) [2, 8]: (52.3) %
- No. of blastocyst attached to feeder cells ([2]; no TSA, mRNA 1800 ng/μl): 13
- No. of established ntESC lines ([2]; no TSA, mRNA 1800 ng/μl): 10
- blastocyst attached to feeder cells (% per blast) ([2]; no TSA, mRNA 1800 ng/μl): 72.2%
- established ntESC lines (% per MII oocyte) ([2]; no TSA, mRNA 1800 ng/μl): (50.0) %
- established ntESC lines (% per blast) ([2]; no TSA, mRNA 1800 ng/μl): (55.6) %
